What all share (type): cell-based, human
Experiment [1] concerns Cha o 1-specific T cell line. In words: Reactivity of Cha o 1-specific T cell line. Particulars: from patients with hinoki pollinosis. The source says:
(§1) Two peptides (Cha o 1 #8-Cry j 1 #22 core, Cha o 1 #32-Cry j 1 #22 core) were synthesized by joining Peptide No. 8 (p71-90: […] SEQ ID NO. 11) which is a T cell epitope of hinoki pollen allergen Cha o 1 (Japanese Patent Application N. Hei. 8-15327), or Peptide No. 32 ([…]: […] SEQ ID NO. 12) to Cry j 1 #22 core sequence “FIKRVSNVI”(SEQ ID NO. 7) obtained in Example 14 using a peptide synthesizer (PSSM-8, Shimadzu Seisakusho Ltd.). An RR sequence was inserted between Cha o 1 #8 and Cry j 1 #22 core and between Cha o 1 #32 and Cry j 1 #22 core, that is, Cha o 1 #8-Cry j 1 #22 core (SEQ NO: 4) and Cha o 1 #32-Cry j 1 #22 core (SEQ NO: 5).
(§2) A Cry j 1-specific T cell line and a Cha o 1-specific T cell line were prepared from the patients with cedar pollinosis and hinoki pollinosis, respectively. […] However, these T cell lines all react with the multi-epitope peptide of SEQ NO: 4 and with the multi-epitope peptide of SEQ NO: 5.

The subject of experiment [2] is T cell line of each patient specifically recognizing Cry j 1 or Cry j 2. Briefly: T cell line proliferation response to overlapping peptides ([3H] thymidine uptake). Particulars: mean stimulation index multiplied by frequency of appearance; T cell lines of 18 patients; 2 μM peptide. Here is the method:
Peripheral lymphocytes from 18 patients with cedar pollinosis were stimulated by cedar pollen allergen Cry j 1 or Cry j 2to establish the T cell line of each patient capable of specifically recognizing the respective allergen.
A mixture of 5×10^4 cells of the autologous B cell line treated with mitomycin C, 2 μM of an overlapping peptide, and 2×10^4 cells of the T cell line was incubated for 2 days in RPMI-1640 medium supplemented with 0.2 ml of 15% serum on a 96-well culture plate. After 0.5 μCi [^3H] thymidine was added to the medium, incubation was continued for a further 18 hours. After the cells were harvested on a glass filter using a cell harvester, the level of [^3H] thymidine taken up into the cells was determined with a liquid scintillation counter. If the stimulation index is 2 or more, we consider that the added peptide is recognized as an antigenic peptide. The stimulation index means a value obtained by dividing the level of [^3H] thymidine taken up into the cells when the peptide was added by the level of [^3H] thymidine taken up into the cells when no peptide was added.
The HLA class II type is considered to vary in every patient. It is thus assumed that a T cell epitope to be recognized would vary depending on the HLA class II type. For this reason, the antigenic peptide that the patients recognized was mapped for the individual patient. […] On the allergen molecule, there are both regions that can be readily recognized and regions that can hardly be recognized, as a T cell epitope, depending on individuals. Moreover, since the proliferation rate of T cells varies depending on a T cell epitope, the epitope map alone makes it difficult to determine what antigenic peptide should be chosen to design the multi-epitope peptide.

Experiment [3] deals with HLA class II molecules. In words: Identifying the HLA class II restriction molecules (transfected mouse L-cells or haplotype-matched B cell line as antigen-presenting cells). The note with it: 2 μM peptide. Here is the method:
HLA class II restriction molecules can be identified using the T cell clones whose restriction molecules were identified at the HLA class II locus level and, as antigen-presenting cells, mouse L-cells transfected with each type for DR and B cell line having the same haplotype for DQ or DP.
A mixture of 5×10^4 mouse L cells previously treated with mitomycin C of the B cell line coincident in haplotype; 2 μM of an overlapping peptide; 3 μg/ml of anti-DR, -DQ or -DP monoclonal antibody (manufactured by Becton-Dickinson Inc.); and 2×10^4 cells of the T cell clone was incubated for 2 days in RPMI-1640 medium supplemented with 0.2 ml of 15% serum on a 96-well micro culture plate. After 0.5 μCi [^3H] thymidine was added to the medium, incubation was continued for a further 18 hours. After the cells were harvested on a glass filter using a cell harvester, the level of [^3H] thymidine taken up into the cells was determined using a liquid scintillation counter.

Experiment [4] relates to T cell lines (PJ, PR, PB) and T cell clones (PB 8-3, PB 8-2, PB 9-39). In words: Determination of core sequence of Cry j 1 peptide No. 22 with T cell lines and clones. The source says:
To determine the minimum amino acid sequence (core) of the Cry j 1 peptide No. 22 (p106-120) necessary for the T cell line and T cell clone proliferation response, one amino acid residue each was deleted from the N and C terminals of this peptide as shown in FIG. 15 to prepare eleven peptides, i.e., p107-120 (p22-2), P108-120 (p22-3), p109-120 (p22-4), p110-120 (p22-5), p111-120 (p22-6), p106-119 (p22-7), p106-118 (p22-8), p106-117 (p22-9), p106-116 (p22-10), and p106-115 (p22-11) using a peptide synthesizer (PSSM-8, manufactured by Shimadzu Seisakusho Ltd.). The T cell lines (PJ, PR, PB) derived from three patients with cedar pollinosis and which react with Cry j 1 Peptide No. 22, p106-120, and the T cell clones (PB 8-3, PB 8-2, PB 9-39) from one of the patients were examined for the reactivity with these 11 peptides in the same manner as in Examples 1 and 2. […] The results reveal that the p106-120 core sequence consists of nine residues of “FIKRVSNVI”(SEQ ID NO. 7) (the nine residues are designated as Cry j 1 #22 core).

Experiment [5] concerns Cry j 1-specific T cell line. Briefly: Reactivity of Cry j 1-specific T cell line. Particulars: from patients with cedar pollinosis.
Text: as §1, §2

For experiment [6], the system named is T cell clones. Briefly: Recognizing the T cell epitopes in the multi-epitope peptide C.A.#4 by T cell clones. The note with it: clones PB8-3, PB8-34, PB4-22, PB14-5, PB14-3; C.A.#4 10 μg/ml. Here is the method: The antigenic peptide constituting the multi-epitope peptide C.A.#4 obtained in Example 6 was examined to determine if the antigenic peptide actually functions as a T cell epitope.
On a 96-well micro culture plate, a mixture of 5×10^4 cells of the autologous B cell line previously treated with mitomycin C and 2×10^4 cells of the T cell clone was incubated for 2 days in 0.2 ml 15% serum-supplemented RPMI-1640 medium, together with, as an antigen, either 50 μg/ml of Cry j 1 and 2 μg/ml of Cry j 2, each antigenic peptide constituting the multi-epitope peptide C.A.#4 or 10 μg/ml C.A.#4 multi-epitope peptide produced by gene expression. After 0.5 μCi [^3H] thymidine was added to the medium, incubation was continued for a further 16 hours. After the cells were harvested on a glass filter using a cell harvester, the level of [^3H] thymidine taken up into the cells was determined using a liquid scintillation counter.

Experiment [7] concerns T cell clones that specifically recognize Cry j 1 or Cry j 2. Briefly: Identifying T cell epitope peptide recognized by T cell clone. The note with it: 2 μM overlapping peptide; clones from patients. The text has this:
Two patients, Patient B (PB) and Patient J (PJ), who recognize Peptide Nos. 43 and 22 showing a high positivity index in Cry j 1 and three patients, who recognize Peptide Nos. 14, 38, 48, and 69 showing a high positivity index in Cry j 2 were selected from the eighteen patients with cedar pollinosis. Peripheral lymphocytes from these patients with cedar pollinosis were stimulated by Cry j 1 or Cry j 2 to establish T cell clones capable of recognizing Cry j 1 or Cry j 2. The types of HLA class I and class II molecules of the four patients are shown below.
Thirty-five T cell clones in total that specifically recognize Cry j 1 were established from the peripheral lymphocytes derived from PB, and 14 similar T cell clones from PJ. Likewise, 31 T cell clones, 10 T cell clones, and 17 T cell clones in total that specifically recognize Cry j 2 were established from the peripheral lymphocytes derived from PB, PC and PR, respectively. […] A mixture of 5×10^4 cells of the autologous B cell line previously treated with mitomycin C, 2 μM of an overlapping peptide, and 2×10^4 cells of the T cell clone was incubated for 2 days in RPMI-1640 medium supplemented with 0.2 ml of 15% serum on a 96-well micro culture plate. […] After the cells were harvested on a glass filter using a cell harvester, the level of [^3H] thymidine taken up into the cells was determined using a liquid scintillation counter. […]

For the substance “Cry j 1 Peptide No. 22: Cry j 1 overlapping peptide No. 22, p106-120 (PCVFIKRVSNVIIHG; Figure 15, p22-1.; listed as Cryptomeria japonica)”, in experiment [1], the “reactivity of Cha o 1-specific T cell line” value was “does not react with”. Also, the positivity index in experiment [2] was 578. In addition, in experiment [3], the peptide-presenting restriction molecule entry is reported as “DRB5*0101”. The proliferation response result in experiment [4] (one T cell line and T cell clone) was “did not show any proliferation response”; in experiment [4] (two T cell lines (PJ, PB) and two T cell clones (PB 8-2, PB 9-39)), “proliferated”. Also, the “reactivity of Cry j 1-specific T cell line” value in experiment [5] is “reacts with”. The “proliferation response of the T cell clones recognizing the respective epitope” value in experiment [6] is “react well”. The “recognition of peptide by allergen-specific T cell clones” value in experiment [7] is recorded as “recognized”.
The substance “KSMKVTVAFNQFGPN [Cry j 1 Peptide No. 43]” gave a positivity index in experiment [2] of 679. For the same substance, the peptide-presenting restriction molecule result in experiment [3] is “DPA1*0101-DPB1*0501”. Also, the “proliferation response of the T cell clones recognizing the respective epitope” value in experiment [6] is reported as “react well”. The “recognition of peptide by allergen-specific T cell clones” value in experiment [7] was “recognized”.

The record behind these values is US6719976B1, “Peptide-based immunotherapeutic agent for treating allergic diseases” (Meiji Milk Products Co., Ltd., priority 1996, dated 2004).
